# In patent USRE39591E1, “6-O-substituted ketolides having antibacterial activity” (Abbott Laboratories, priority 1996, dated 2007):
# Tested on: up to 32 different microorganisms
# Assay: in vitro antibacterial activity (MIC), agar dilution on Brain Heart Infusion (BHI) agar with Steers replicator
# Assay type: cell-based
# Settings: unit assumed
# Method: Representative compounds of the present invention were assayed in vitro for antibacterial activity as follows: Twelve petri dishes containing successive aqueous dilutions of the test compound mixed with 10 mL of sterilized Brain Heart Infusion (BHI) agar (Difco 0148-01-5) were prepared. Each plate was inoculated with 1:100 (or 1:10 for slow-growing strains, such as Micrococcus and Streptococcus) dilutions of up to 32 different microorganisms, using a Steers replicator block. The inoculated plates were incubated at 35°-37° C. for 20 to 24 hours. In addition, a control plate, using BHI agar containing no test compound, was prepared and incubated at the beginning and end of each test.
# An additional plate containing a compound having known susceptibility patterns for the organisms being tested and belonging to the same antibiotic class as the test compound was also prepared and incubated as a further control, as well as to provide test-to-test comparability. Erythromycin A was used for this purpose.
# After incubation, each plate was visually inspected. The minimum inhibitory concentration (MIC) was defined as the lowest concentration of drug yielding no growth, a slight haze, or sparsely isolated colonies on the inoculum spot as compared to the growth control.
# [1] = Candida albicans CCH 442 (code TT)
# [2] = Enterococcus faecism ATCC 8043 (code II)
# [3] = Escherichia coli DC-2 (code SS)
# [4] = Escherichia coli JUHL (code QQ)
# [5] = Haemophilis influenzae DILL AMP R (code WW)
# [6] = Micrococcus luteus ATCC 4698 (code PP)
# [7] = Micrococcus luteus ATCC 9341 (code OO)
# [8] = Mycobacterium smegmatis ATCC 114 (code UU)
# [9] = Nocardia Asteroides ATCC9970 (code VV)
# [10] = Staphylococcus aureus 1775 (code GG)
# [11] = Staphylococcus aureus A5177 (code BB)
# [12] = Staphylococcus aureus A-5278 (code CC)
# [13] = Staphylococcus aureus ATCC 6538P (code AA)
# [14] = Staphylococcus aureus CMX 553 (code FF)
# [15] = Staphylococcus aureus CMX 642A (code DD)
# [16] = Staphylococcus aureus NCTC10649M (code EE)
# [17] = Staphylococcus epidermidis 3519 (code HH)
# [18] = Streptococcus Pneumonia 5649 (code ZZA)
# [19] = Streptococcus Pneumonia 5979 (code ZZ)
# [20] = Streptococcus Pneumonia ATCC6303 (code XX)
# [21] = Streptococcus Pneumonia GYR 1171 (code YY)
# [22] = Streptococcus agalactiae CMX 508 (code KK)
# [23] = Streptococcus bovis A-5169 (code JJ)
# [24] = Streptococcus pyogenes 930 (code MM)
# [25] = Streptococcus pyogenes EES61 (code LL)
# [26] = Streptococcus pyogenes PIU 2548 (code NN)
structure (smiles),measurement,setting,value
"CC[C@H]1OC(=O)[C@H](C)C(=O)[C@H](C)[C@@H](O[C@@H]2O[C@H](C)C[C@H](N(C)C)[C@H]2O)[C@@](C)(OCC=Cc2cnc3ccccc3c2)C[C@@H](C)C(=O)[C@H](C)[C@H]2OC(=O)O[C@@]21C [Example 75, Compound of Formula (IX): L is CO, T is O, R is —CH2CH═CH-(3-quinolyl)]",MIC,[1],100 µg/mL
same,MIC,[2],0.1 µg/mL
same,MIC,[3],> 100 µg/mL
same,MIC,[4],50 µg/mL
same,MIC,Escherichia coli SS (code RR),0.39 µg/mL
same,MIC,[5],2 µg/mL
same,MIC,[6],0.2 µg/mL
same,MIC,[7],0.02 µg/mL
same,MIC,[8],0.39 µg/mL
same,MIC,[9],0.05 µg/mL
same,MIC,[10],> 100 µg/mL
same,MIC,[11],0.1 µg/mL
same,MIC,[12],> 100 µg/mL
same,MIC,[13],0.1 µg/mL
same,MIC,[14],0.1 µg/mL
same,MIC,[15],0.1 µg/mL
same,MIC,[16],0.1 µg/mL
same,MIC,[17],0.1 µg/mL
same,MIC,[18],0.5 µg/mL
same,MIC,[19],64 µg/mL
same,MIC,[20],0.03 µg/mL
same,MIC,[21],0.03 µg/mL
same,MIC,[22],0.01 µg/mL
same,MIC,[23],< 0.005 µg/mL
same,MIC,[24],3.1 µg/mL
same,MIC,[25],0.02 µg/mL
same,MIC,[26],0.1 µg/mL
"CCC1OC(=O)C(C)C(=O)C(C)C(OC2OC(C)CC(N(C)C)C2O)C(C)(OCC=Cc2ccc3cc(O)ccc3c2)CC(C)C(=O)C(C)C2NC(=O)OC12C (stereo not drawn) [Example 287, Compound of Formula (IX): L is CO, T is NH2, R is —CH2CH═CH-(6-hydroxy-2-naphthyl)]",MIC,organism code AA,0.1 µg/mL
same,MIC,organism code BB,0.1 µg/mL
same,MIC,organism code CC,> 100 µg/mL
same,MIC,organism code DD,0.1 µg/mL
same,MIC,organism code EE,0.1 µg/mL
same,MIC,organism code FF,0.02 µg/mL
same,MIC,organism code GG,> 100 µg/mL
same,MIC,organism code HH,0.1 µg/mL
same,MIC,organism code II,0.05 µg/mL
same,MIC,organism code JJ,0.02 µg/mL
same,MIC,organism code KK,0.02 µg/mL
same,MIC,organism code LL,0.02 µg/mL
same,MIC,organism code MM,3.1 µg/mL
same,MIC,organism code NN,0.1 µg/mL
same,MIC,organism code OO,0.02 µg/mL
same,MIC,organism code PP,0.2 µg/mL
same,MIC,organism code QQ,50 µg/mL
same,MIC,organism code RR,0.39 µg/mL
same,MIC,organism code SS,> 100 µg/mL
same,MIC,organism code TT,> 100 µg/mL
same,MIC,organism code UU,0.39 µg/mL
same,MIC,organism code VV,0.05 µg/mL
same,MIC,organism code WW,2 µg/mL
same,MIC,organism code XX,0.03 µg/mL
same,MIC,organism code YY,0.03 µg/mL
same,MIC,organism code ZZ,4 µg/mL
same,MIC,organism code ZZA,0.5 µg/mL
"CC[C@H]1OC(=O)[C@H](C)C(=O)[C@H](C)[C@@H](O[C@@H]2O[C@H](C)C[C@H](N(C)C)[C@H]2O)[C@@](C)(OCC=Cc2cnc3ccccc3c2)C[C@@H](C)C(=O)[C@H](C)[C@H]2N(N)C(=O)O[C@]12C [Example 263, Compound of Formula (IX): L is CO, T is N(NH2), R is —CH2CH═CH-(3-quinolyl)]",MIC,organism code AA,0.1 µg/mL
same,MIC,organism code BB,0.1 µg/mL
same,MIC,organism code CC,> 100 µg/mL
same,MIC,organism code DD,0.1 µg/mL
same,MIC,organism code EE,0.1 µg/mL
same,MIC,organism code FF,0.05 µg/mL
same,MIC,organism code GG,> 100 µg/mL
same,MIC,organism code HH,0.1 µg/mL
same,MIC,organism code II,0.01 µg/mL
same,MIC,organism code JJ,0.01 µg/mL
same,MIC,organism code KK,0.02 µg/mL
same,MIC,organism code LL,0.02 µg/mL
same,MIC,organism code MM,50 µg/mL
same,MIC,organism code NN,0.2 µg/mL
same,MIC,organism code OO,0.02 µg/mL
same,MIC,organism code PP,0.2 µg/mL
same,MIC,organism code QQ,> 100 µg/mL
same,MIC,organism code RR,0.78 µg/mL
same,MIC,organism code SS,> 100 µg/mL
same,MIC,organism code TT,> 100 µg/mL
same,MIC,organism code UU,0.78 µg/mL
same,MIC,organism code VV,0.2 µg/mL
same,MIC,organism code WW,4 µg/mL
same,MIC,organism code XX,0.015 µg/mL
same,MIC,organism code YY,0.015 µg/mL
same,MIC,organism code ZZ,> 128 µg/mL
same,MIC,organism code ZZA,0.25 µg/mL
"CCC1OC(=O)C(C)C(=O)C(C)C(OC2OC(C)CC(N(C)C)C2O)C(C)(OCC=Cc2cnc3ccccc3c2)CC(C)C(=O)C(C)C2N(CC=Cc3cnc4ccccc4c3)C(=O)OC12C (stereo not drawn) [Example 184, Compound of Formula (IX): L is CO, T is T is N (CH2CH═CH-(3-quinolyl)), R is —CH2CH═CH-(3-quinolyl)]",MIC,[1],> 100 µg/mL
same,MIC,[2],0.2 µg/mL
same,MIC,[3],> 100 µg/mL
same,MIC,[4],> 100 µg/mL
same,MIC,Escherichia coli SS (code RR),12.5 µg/mL
same,MIC,[5],> 128 µg/mL
same,MIC,[6],0.78 µg/mL
same,MIC,[7],0.39 µg/mL
same,MIC,[8],6.2 µg/mL
same,MIC,[9],3.1 µg/mL
same,MIC,[10],> 100 µg/mL
same,MIC,[11],1.56 µg/mL
same,MIC,[12],> 100 µg/mL
same,MIC,[13],3.1 µg/mL
same,MIC,[14],1.56 µg/mL
same,MIC,[15],3.1 µg/mL
same,MIC,[16],3.1 µg/mL
same,MIC,[17],3.1 µg/mL
same,MIC,[18],2 µg/mL
same,MIC,[19],32 µg/mL
same,MIC,[20],1 µg/mL
same,MIC,[21],0.5 µg/mL
same,MIC,[22],0.1 µg/mL
same,MIC,[23],0.1 µg/mL
same,MIC,[24],25 µg/mL
same,MIC,[25],0.1 µg/mL
same,MIC,[26],1.56 µg/mL
